The values below come from patent US9375004B2 (Bayer Intellectual Property GmbH, priority 2010, dated 2016).

A short description of the series: logP by HPLC on reversed-phase column (EEC Directive 79/831 Annex V.A8). The following applies: HPLC on reversed-phase column (C 18), EEC Directive 79/831 Annex V.A8.

`C/C(=N\OC(C)(C)C)c1ccc(-c2ccccc2NC(=O)c2c(C(F)F)nn(C)c2Cl)cc1` [compound 157]: the log partition coefficient (logP) – broadly, a log measure of how a compound divides between an organic and an aqueous phase – is recorded as 5.54. Take `Cn1nc(C(F)F)c(C(=O)Nc2ccccc2OCc2ccccc2)c1F` [compound 158]: the logP is 3.67.

`Cn1nc(C(F)F)c(C(=O)Nc2ccccc2OCc2ccccc2)c1Cl` [compound 159] yielded a logP of 3.99. Turning to `Cc1ccccc1Oc1ccccc1NC(=O)c1c(C(F)F)nn(C)c1F` [compound 160], the logP is listed as 3.96. Turning to `Cc1ccccc1Oc1ccccc1NC(=O)c1c(C(F)F)nn(C)c1Cl` [compound 161], the logP amounted to 4.29.

Turning to `Cn1nc(C(F)F)c(C(=O)Nc2ccccc2OCc2cc(Cl)ccc2Cl)c1F` [compound 162], the logP is listed as 4.56. For `Cn1nc(C(F)F)c(C(=O)Nc2ccccc2Sc2ccc(Cl)cc2)c1F` [compound 164], the logP worked out at 4.34. Turning to `Cn1nc(C(F)F)c(C(=O)Nc2ccccc2Sc2ccc(Cl)cc2)c1Cl` [compound 165], the logP was found to be 4.63. `CCOc1ccc(NC(=O)c2c(C(F)F)nn(C)c2F)cc1OCC` [compound 167] yielded a log partition coefficient (logP) of 2.54. As to `CCOc1ccc(NC(=O)c2c(C(F)F)nn(C)c2Cl)cc1OCC` [compound 168], the logP was determined as 2.70.

As for `CC(C)Oc1cc(NC(=O)c2c(C(F)F)nn(C)c2F)c(Cl)cc1Cl` [compound 172], the log partition coefficient (logP) is listed as 4.41.

`CC(C)Oc1cc(NC(=O)c2c(C(F)F)nn(C)c2Cl)c(Cl)cc1Cl` [compound 173]: the logP is 4.68. In the case of `CCCOc1cccc(NC(=O)c2c(C(F)F)nn(C)c2F)c1` [compound 175], the logP is listed as 3.04. With `C=C(C)COc1cccc(NC(=O)c2c(C(F)F)nn(C)c2Cl)c1` [compound 177], the logP worked out at 3.33. With `CCC(C)Oc1cc(NC(=O)c2c(C(F)F)nn(C)c2Cl)ccc1C` (stereo not shown) [compound 178], the logP was found to be 4.06. In turn, `CCC(C)Oc1cc(NC(=O)c2c(C(F)F)nn(C)c2F)ccc1C` (stereo not shown) [compound 179] came in with a lipophilicity (logP) of 3.85. `COCCOc1cccc(NC(=O)c2c(C(F)F)nn(C)c2F)c1` [compound 180] gave a logP of 2.15. With `Cn1nc(C(F)F)c(C(=O)Nc2cccc(OCC(C)(C)C)c2)c1F` [compound 182], the logP is on record as 3.96. The same measure for `Cn1nc(C(F)F)c(C(=O)Nc2cccc(OCC(C)(C)C)c2)c1Cl` [compound 183]: 4.19; for `CCOCCOc1cc(NC(=O)c2c(C(F)F)nn(C)c2Cl)ccc1C` [compound 184]: 3.13; for `CCOCCOc1cc(NC(=O)c2c(C(F)F)nn(C)c2F)ccc1C` [compound 185]: 2.96. `Cn1nc(C(F)F)c(C(=O)Nc2cccc(OCC(F)(F)F)c2)c1F` [compound 186] yielded a log partition coefficient (logP) of 2.88. Next, `Cn1nc(C(F)F)c(C(=O)Nc2cccc(OCC(F)(F)F)c2)c1Cl` [compound 187]: 3.06. `Cn1nc(C(F)F)c(C(=O)Nc2cccc(Br)c2)c1F` [compound 189] yielded a lipophilicity (logP) of 2.82. In turn, `Cn1nc(C(F)F)c(C(=O)Nc2cccc(Br)c2)c1Cl` [compound 190] came in with a logP of 3.04.

In the case of `Cn1nc(C(F)F)c(C(=O)Nc2cccc(C3CC3)c2)c1F` [compound 191], the logP amounted to 2.90. `Cn1nc(C(F)F)c(C(=O)Nc2ccc3c(c2)OCO3)c1F` [compound 194]: the lipophilicity (logP) turned out to be 2.05. `Cn1nc(C(F)F)c(C(=O)Nc2ccc3c(c2)OCO3)c1Cl` [compound 195] showed a logP of 2.20. On to `Cn1nc(C(F)F)c(C(=O)Nc2cc3c(cc2Br)OC(F)(F)O3)c1F` [compound 196], for which the lipophilicity (logP) is on record as 3.58. The molecule `Cn1nc(C(F)F)c(C(=O)Nc2ccc3c(c2)OC(F)(F)O3)c1F` [compound 197] registered a lipophilicity (logP) of 2.94.

As to `Cn1nc(C(F)F)c(C(=O)Nc2ccc3c(c2)OC(F)(F)O3)c1Cl` [compound 198], the logP was found to be 3.11.
